Results: patent publication US12180207B2 (ARRAY BIOPHARMA INC., priority 2018, dated 2024)

Tests used:
[1] = molecular target: dephosphorylated FGFR1 (SEQ ID NO: 1, amino acids 458 to 765) (Homo sapiens (Human), UniProt P11362); assay: FGFR enzyme binding assay (HTRF tracer displacement), FGFR1; conditions: 5 nM dephosphorylated FGFR1, average of multiple determinations if made
Procedure, shortened: (§1)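 Compounds were tested for displacement of a tracer from human FGFR kinase in a time-resolved FRET binding format. After 60 minutes at 22° C, signal was read at two wavelengths and converted to percent of control, normalised between untreated wells and 1 μM reference inhibitor.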

[2] = molecular target: phosphorylated FGFR3 (SEQ ID NO: 5, amino acids 449 to 759) (Homo sapiens (Human), UniProt P22607); assay: FGFR enzyme binding assay (HTRF tracer displacement), FGFR3; conditions: 5 nM phosphorylated FGFR3, average of multiple determinations if made
Procedure, shortened: as §1

[3] = molecular target: FGFR1 (SEQ ID NO: 1, amino acids 458-765) (Homo sapiens (Human), UniProt P11362); assay: LC/MS FGFR1 kobs assay (covalent protein modification); type: binding; conditions: 500 nM FGFR1, 3 μM compound
Procedure, shortened: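 Covalent labeling of FGFR1 kinase domain (aa 458-765) tracked over time by intact-protein LC/MS after formic acid quench. kobs derived by fitting DMSO-normalized percent unmodified FGFR1 to an exponential decay model.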

[4] = molecular target: FGFR3 (SEQ ID NO: 5, amino acids 449-759) (Homo sapiens (Human), UniProt P22607); assay: LC/MS FGFR3 kobs assay (covalent protein modification); type: binding; conditions: 500 nM FGFR3, 3 μM compound
Procedure, shortened: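 The observed rate constant kobs comes from an exponential decay fit of percent unmodified kinase over time. Covalent modification was quantified by Q-TOF LC/MS of formic acid-quenched samples, normalized against DMSO controls.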

[5] = molecular target: HEK-293 cells transfected with dox-inducible human wild type FGFR1 (Homo sapiens (Human), UniProt P11362); assay: FGFR1 pERK cell assay; type: cell-based; conditions: HEK-293 dox-inducible FGFR1, 1 hour compound, 100 ng/ml FGF-acidic; maximum concentration 5 μM
Description: (§2) FGFR1 pERK Cell Assay: • HEK-293 cells transfected with doxycycline(dox)-inducible human wild type FGFR1 (SEQ ID NO: 1) were plated in a collagen or poly-D-lysine coated 96 well flat bottom plates at 4×10^5 cells/well in complete Dulbecco's Modified Eagle Medium (DMEM) containing 10% FBS and 1 μg/ml doxycycline and allowed to attach for 24 h at 37° C., 5% CO2. Cells were treated with compound using 1:3 serial dilutions with a maximum final concentration of 5 μM. Compound was incubated on cells for 1 hour at 37° C., 5% CO2. Cells were then stimulated with a final concentration of 100 ng/ml human FGF-acidic (R&D Systems Cat number 232-FA/CF) for 5 minutes at 37° C., 5% CO2. Medium was removed, and cells were lysed with lysis buffer containing phosphatase and protease inhibitors. Phospho ERK1/2 was measured using the Meso Scale Discovery sandwich assay (Meso Scale Discovery cat. no. K151DWD). The assay captures phospho ERK1/2 and detects with a sulfo-tagged total ERK1/2 antibody. The chemiluminescent signal was read on the Sector Imager Plate reader. 100 POC was determined using no test compound and 0 POC was determined using a control compound. The POC values were fit to a 4-parameter logistic curve as a function of the concentration of the compound, and the IC50 value is the point where the curve crosses 50 POC.

[6] = molecular target: HEK-293 cells transfected with dox-inducible human wild type FGFR3 (Homo sapiens (Human), UniProt P22607); assay: FGFR3 pERK cell assay; type: cell-based; conditions: HEK-293 dox-inducible FGFR3, 1 hour compound, 100 ng/ml FGF-acidic; maximum concentration 5 μM
Description: as §2, with “FGFR3 pERK” for “FGFR1 pERK”, “with dox-inducible” for “with doxycycline(dox)-inducible”, “type FGFR3” for “type FGFR1”, “NO: 5)” for “NO: 1)”, “complete DMEM medium” for “complete Dulbecco's Modified Eagle Medium (DMEM)”, “test compounds” for “test compound”

HEK-293 cells transfected with dox-inducible human wild type FGFR3, sequence (P22607 23-806): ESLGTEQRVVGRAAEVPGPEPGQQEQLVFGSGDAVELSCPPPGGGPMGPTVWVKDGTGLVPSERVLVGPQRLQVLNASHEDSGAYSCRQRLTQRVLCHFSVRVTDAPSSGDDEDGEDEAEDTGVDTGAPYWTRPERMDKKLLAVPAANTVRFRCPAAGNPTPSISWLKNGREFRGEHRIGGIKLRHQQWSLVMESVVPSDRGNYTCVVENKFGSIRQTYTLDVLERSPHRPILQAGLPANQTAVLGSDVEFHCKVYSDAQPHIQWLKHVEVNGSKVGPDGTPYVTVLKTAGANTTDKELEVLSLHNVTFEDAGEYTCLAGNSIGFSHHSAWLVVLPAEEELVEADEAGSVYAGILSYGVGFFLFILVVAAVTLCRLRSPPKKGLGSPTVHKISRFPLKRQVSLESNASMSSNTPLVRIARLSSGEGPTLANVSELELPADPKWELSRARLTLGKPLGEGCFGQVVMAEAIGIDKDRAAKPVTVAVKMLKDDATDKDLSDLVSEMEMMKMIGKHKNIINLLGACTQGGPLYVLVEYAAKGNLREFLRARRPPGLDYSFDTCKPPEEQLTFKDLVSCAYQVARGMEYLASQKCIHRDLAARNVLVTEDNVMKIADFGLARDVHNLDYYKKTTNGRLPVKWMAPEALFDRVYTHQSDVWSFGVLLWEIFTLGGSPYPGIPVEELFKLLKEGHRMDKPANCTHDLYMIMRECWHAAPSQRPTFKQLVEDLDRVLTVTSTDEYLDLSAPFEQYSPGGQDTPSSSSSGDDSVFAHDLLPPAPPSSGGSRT
phosphorylated FGFR3 (SEQ ID NO: 5, amino acids 449 to 759), sequence (P22607 449-759): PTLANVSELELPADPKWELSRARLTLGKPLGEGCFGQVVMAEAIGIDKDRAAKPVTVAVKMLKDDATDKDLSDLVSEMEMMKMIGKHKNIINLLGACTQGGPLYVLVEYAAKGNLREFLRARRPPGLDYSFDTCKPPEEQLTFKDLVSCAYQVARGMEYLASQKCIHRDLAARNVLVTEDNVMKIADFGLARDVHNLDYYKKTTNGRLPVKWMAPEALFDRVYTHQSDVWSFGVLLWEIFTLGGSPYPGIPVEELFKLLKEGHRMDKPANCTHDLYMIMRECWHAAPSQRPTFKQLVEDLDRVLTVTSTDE
FGFR3 (SEQ ID NO: 5, amino acids 449-759), sequence (P22607 449-759): as above
FGFR1 (SEQ ID NO: 1, amino acids 458-765), sequence (P11362 458-765): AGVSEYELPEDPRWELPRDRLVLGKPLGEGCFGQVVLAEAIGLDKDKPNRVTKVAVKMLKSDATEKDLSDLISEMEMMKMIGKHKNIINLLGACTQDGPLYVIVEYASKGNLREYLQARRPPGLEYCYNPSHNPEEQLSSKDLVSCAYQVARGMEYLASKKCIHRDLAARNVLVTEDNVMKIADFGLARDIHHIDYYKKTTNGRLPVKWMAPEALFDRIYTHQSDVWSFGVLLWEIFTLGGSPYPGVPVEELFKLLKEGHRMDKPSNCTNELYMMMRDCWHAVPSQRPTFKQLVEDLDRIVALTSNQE
dephosphorylated FGFR1 (SEQ ID NO: 1, amino acids 458 to 765), sequence (P11362 458-765): as above
HEK-293 cells transfected with dox-inducible human wild type FGFR1, sequence (P11362 22-822): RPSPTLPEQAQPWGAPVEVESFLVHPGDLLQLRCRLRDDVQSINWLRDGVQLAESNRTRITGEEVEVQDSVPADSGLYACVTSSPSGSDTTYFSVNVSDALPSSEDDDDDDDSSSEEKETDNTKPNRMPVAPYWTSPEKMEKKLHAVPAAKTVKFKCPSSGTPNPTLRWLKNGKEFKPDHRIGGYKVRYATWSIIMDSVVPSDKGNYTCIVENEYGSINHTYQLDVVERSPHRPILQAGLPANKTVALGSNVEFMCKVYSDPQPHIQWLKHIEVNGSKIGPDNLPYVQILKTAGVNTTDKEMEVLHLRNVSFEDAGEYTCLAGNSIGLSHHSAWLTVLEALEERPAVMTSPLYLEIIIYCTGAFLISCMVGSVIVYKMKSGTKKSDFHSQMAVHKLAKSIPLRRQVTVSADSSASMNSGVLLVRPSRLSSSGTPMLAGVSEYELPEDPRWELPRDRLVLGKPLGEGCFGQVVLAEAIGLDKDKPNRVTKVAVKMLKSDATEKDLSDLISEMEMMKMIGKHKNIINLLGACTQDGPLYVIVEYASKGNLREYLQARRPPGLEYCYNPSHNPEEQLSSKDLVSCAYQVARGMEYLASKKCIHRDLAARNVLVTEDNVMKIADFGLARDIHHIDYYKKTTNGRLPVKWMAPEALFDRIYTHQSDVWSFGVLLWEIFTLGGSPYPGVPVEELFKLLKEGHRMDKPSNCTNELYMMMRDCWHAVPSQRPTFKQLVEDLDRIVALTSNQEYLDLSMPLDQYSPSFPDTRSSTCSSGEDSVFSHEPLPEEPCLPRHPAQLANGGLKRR

IC50 [1]	IC50 [2]	FGFR1 Enz kobs [3]	FGFR3 Enz kobs [4]	IC50 [5]	IC50 [6]	Structure (SMILES)
675 nM	26 nM	0.00409 min⁻¹	0.04202 min⁻¹	1070 nM	98 nM	C=CC(=O)N1CC(OC)(C(=O)N2CCC(n3nc(C)c(-c4cc(OC)c5c(C#N)cnn5c4)c3C)CC2)C1 [Example 95, 6-(1-(1-(1-acryloyl-3-methoxyazetidine-3-carbonyl)piperidin-4-yl)-3,5-dimethyl-1H-pyrazol-4-yl)-4-methoxypyrazolo[1,5-a]pyridine-3-carbonitrile]
1620 nM	73 nM	0.00363 min⁻¹	0.03335 min⁻¹	2100 nM	351 nM	C=CC(=O)N1CC(F)(C(=O)N2CCC(n3ncc(-c4cc(OC)c5c(C#N)cnn5c4)c3CC)CC2)C1 [Example 96, 6-(1-(1-(1-acryloyl-3-fluoroazetidine-3-carbonyl)piperidin-4-yl)-5-ethyl-1H-pyrazol-4-yl)-4-methoxypyrazolo[1,5-a]pyridine-3-carbonitrile]
572 nM	53 nM	0.00276 min⁻¹	0.01865 min⁻¹	–	384 nM	C=CC(=O)N1CC(C(=O)N2CCC(n3cc(-c4cc(OC)c5c(C#N)cnn5c4)c(CC)n3)CC2)C1 [Example 97, 6-(1-(1-(1-acryloylazetidine-3-carbonyl)piperidin-4-yl)-3-ethyl-1H-pyrazol-4-yl)-4-methoxypyrazolo[1,5-a]pyridine-3-carbonitrile]
57 nM	5 nM	0.0025 min⁻¹	0.02324 min⁻¹	180 nM	21 nM	C=CC(=O)N1CC(C(=O)N2CCN(c3ccc(-c4cc(OC)c5c(C#N)cnn5c4)cc3)CC2)C1 [Example 100, 6-(4-(4-(1-acryloylazetidine-3-carbonyl)piperazin-1-yl)phenyl)-4-methoxypyrazolo[1,5-a]pyridine-3-carbonitrile]
44 nM	6 nM	0.00313 min⁻¹	0.02912 min⁻¹	239 nM	44 nM	C=CC(=O)N1CC(C(=O)N2CCC3(CC2)CN(c2ccc(-c4cc(OC)c5c(C#N)cnn5c4)cn2)C3)C1 [Example 102, 6-(6-(7-(1-acryloylazetidine-3-carbonyl)-2,7-diazaspiro[3.5]nonan-2-yl)pyridin-3-yl)-4-methoxypyrazolo[1,5-a]pyridine-3-carbonitrile]
70 nM	10 nM	0.00388 min⁻¹	0.02186 min⁻¹	573 nM	137 nM	C=CC(=O)N1CC(C(=O)N2CCC3(C2)CN(c2ccc(-c4cc(OC)c5c(C#N)cnn5c4)cn2)C3)C1 [Example 103, 6-(6-(6-(1-acryloylazetidine-3-carbonyl)-2,6-diazaspiro[3.4]octan-2-yl)pyridin-3-yl)-4-methoxypyrazolo[1,5-a]pyridine-3-carbonitrile]
72 nM	12 nM	0.00386 min⁻¹	0.03006 min⁻¹	1110 nM	146 nM	C=CC(=O)N1CC(C(=O)N2CC3(C2)CN(c2ccc(-c4cc(OC)c5c(C#N)cnn5c4)cn2)C3)C1 [Example 104, 6-(6-(6-(1-acryloylazetidine-3-carbonyl)-2,6-diazaspiro[3.3]heptan-2-yl)pyridin-3-yl)-4-methoxypyrazolo[1,5-a]pyridine-3-carbonitrile]
49 nM	8 nM	–	0.00097 min⁻¹	989 nM	318 nM	COc1cc(-c2cnn(C3CCN(C(=O)C4CN(C(=O)C5=CCC5)C4)CC3)c2)cn2ncc(C#N)c12 [Example 137, 6-(1-(1-(1-(cyclobut-1-ene-1-carbonyl)azetidine-3-carbonyl)piperidin-4-yl)-1H-pyrazol-4-yl)-4-methoxypyrazolo[1,5-a]pyridine-3-carbonitrile]
60 nM	4 nM	0.00179 min⁻¹	0.01811 min⁻¹	–	–	COc1cc(-c2cnn(C3CCN(C(=O)C4CN(C(=O)/C=C/CN5CCCCC5)C4)CC3)c2)cn2ncc(C#N)c12 [Example 145, (E)-4-methoxy-6-(1-(1-(1-(4-(piperidin-1-yl)but-2-enoyl)azetidine-3-carbonyl)piperidin-4-yl)-1H-pyrazol-4-yl)pyrazolo[1,5-a]pyridine-3-carbonitrile]
426 nM	10 nM	0.03227 min⁻¹	–	157 nM	31 nM	COc1cc(-c2cnn(C3CCN(C(=O)C4(F)CN(C(=O)/C=C/C(F)(F)F)C4)CC3)c2C)cn2ncc(C#N)c12 [Example 155, (E)-6-(1-(1-(3-fluoro-1-(4,4,4-trifluorobut-2-enoyl)azetidine-3-carbonyl)piperidin-4-yl)-5-methyl-1H-pyrazol-4-yl)-4-methoxypyrazolo [1,5-a]pyridine-3-carbonitrile]
194 nM	12 nM	0.00242 min⁻¹	0.02588 min⁻¹	–	–	COc1cc(-c2cnn(C3CCN(C(=O)C4CN(C(=O)/C=C/CN(C)C)C4)CC3)c2)cn2ncc(Cl)c12 [Example 174]
90 nM	8 nM	0.00204 min⁻¹	0.01233 min⁻¹	–	–	COc1cc(-c2cnn(C3CCN(CC4CN(C(=O)/C=C/CN5CCCCC5)C4)CC3)c2)cn2ncc(C#N)c12 [Example 175, (E)-4-methoxy-6-(1-(1-((1-(4-(piperidin-1-yl)but-2-enoyl)azetidin-3-yl)methyl)piperidin-4-yl)-1H-pyrazol-4-yl)pyrazolo[1,5-a]pyridine-3-carbonitrile]
61 nM	8 nM	0.00131 min⁻¹	0.01469 min⁻¹	–	–	C=CC(=O)N(C)c1ccc(C(=O)N2CCC(n3cc(-c4cc(OC)c5c(C#N)cnn5c4)cn3)CC2)cc1 [Example 178, N-(4-(4-(4-(3-cyano-4-methoxypyrazolo[1,5-a]pyridin-6-yl)-1H-pyrazol-1-yl)piperidine-1-carbonyl)phenyl)-N-methylacrylamide]

Structure (SMILES)	IC50 [1]	IC50 [2]	FGFR1 Enz kobs [3]	FGFR3 Enz kobs [4]	IC50 [5]	IC50 [6]
C=CC(=O)N1CC(C(=O)N2CC3CC(C2)N3c2ccc(-c3cc(OC)c4c(C#N)cnn4c3)cn2)C1 [Example 105, 6-(6-(3-(1-acryloylazetidine-3-carbonyl)-3,6-diazabicyclo[3.1.1]heptan-6-yl)pyridin-3-yl)-4-methoxypyrazolo[1,5-a]pyridine-3-carbonitrile]	435 nM	97 nM	0.00042 min⁻¹	0.00147 min⁻¹	3960 nM	2660 nM
